Data set [1] has as its target butyryl cholinesterase. Also noted: method as in PMID 23046385. To be noted: read-out: inhibitory activity against butyryl cholinesterase IC50; cited from earlier work.
Data set [2] relates to lung cancer cell line A549. The settings on record: cited from earlier work.
The nature of data set [3]: physchem. The settings on record: for light transmittance of the diluted solution: 1 h, 1.82 mM. The class given is physicochemical. As for the experimental part:
All the metabolites obtained during this study were more polar than their parent compound (−)-α-bisabolol (1) and proposed to have higher aqueous solubility. In order to confirm the improvement in solubility, a modified kinetic solubility test was carried out using the stock solutions of compounds 1–12 (20 mM in dimethyl sulfoxide). […] This was confirmed by measuring the light transmittance of the diluted solutions.
The solubility of compounds 1–12 was evaluated by the modified kinetic solubility assay. Compounds 1–12 were dissolved in dimethyl sulfoxide (DMSO) to yield 20 mM stock solutions, then 10 μL of the compound stock solution was diluted with 100 μL water. After all the solutions were prepared, the vials were placed under room temperature and allowed to mix for 1 h. After this, the light transmittance was measured at a scan width of 5 nm over the range of 390 to 650 nm using a SpectraMax 190 Microplate reader (Molecular Devices, Sunnyvale, CA, USA). After centrifugation, the supernatant was analyzed by HPLC under 200 nm using a Zorbax SB-CN (250 × 10 mm) column with 60% methanol as mobile phase at a flow rate of 2 mL/min.

In data set [4] the test system is LPS-induced production of NO and PGE2. More on the design: method as in PMID 21771629. The settings on record: dose-dependent; cited from earlier work.
Data set [5] deals with healthy and infected hamsters. The settings on record: cited from earlier work.
Data set [6] concerns promastigotes. More on the design: method as in PMID 25448354, PMID 27616730. The settings on record: in vitro, cited from earlier work.
On the set-up of data set [7]: method as in PMID 24894548. To be noted: cited from earlier work.
Details of data set [8]: method as in earlier work. The settings on record: antioxidant activity; cited from earlier work.

≈ marks a conversion by molar mass, not a printed value. Where two headings read alike, the source gives them in different places.

Results on nine compounds are retold here after article PMC8840173 (Molecules, 2022).

A word on the IC50: it is the concentration at which inhibition is half-maximal. Usually solubility stands for the dissolved amount per volume that the medium holds.

Regarding 14-hydroxymethyl caryophyllene oxide, the IC50 in data set [1] was 10.9 µM. Turning to `C=C(CO)C1CCC2=CC(=O)CC(C)C2(C)C1` (centres unmarked) [13-hydroxynootkatone], the “cytotoxic activity IC50” value in data set [2] was 36 µg/mL. `CC(C)=CCC[C@](C)(O)[C@@H]1CC=C(C)CC1` [Compound 1, (−)-α-Bisabolol]: the “appearance after dilution (turbidity / precipitates)” value in data set [3] (10 μL of 20 mM DMSO stock diluted with 100 μL water) is given as “White turbidity”. In addition, the “light transmittance of the diluted solution” value (“light transmittance” for short) in data set [3] is “less than 50%”. The concentration in solution in data set [3] (aqueous with cosolvent or surfactant or cyclodextrin, kinetic from dmso stock) (solubility at 1 h) was 260 µM (≈ 57.8 µg/mL). Also, in data set [4], the “effect on LPS-induced production of NO and PGE2” value was “significantly reduce”. For the same compound, the “toxicity or side effects after administration” value in data set [5] is listed as “did not lead to the appearance of toxicity or side effects”. Further, the “antileishmanial activity IC50” value in data set [6] (24 h) was 8.07 µg/mL; in data set [6] (48 h), 4.26 µg/mL. Moreover, the “effect on TPA-induced ear thickness and histopathological damage in the ear tissue” value in data set [7] is “significantly inhibited”. The “IC50 for DPPH radical scavenging ability” value in data set [8] was 43880 µg/mL. In the case of `CC(C)=CCC[C@](C)(O)[C@@H]1CC=C(C)[C@H](O)C1` [Compound 2, (1R,5R,7S)-5-hydroxy-α-bisabolol], the “light transmittance” value in data set [3] is recorded as 90%. Still for that read-out and setting: the figure for `CC1=CC[C@@](O)([C@]2(C)CC[C@@H](C(C)(C)O)O2)CC1` [Compound 5, (1R,7S,10S)-1-hydroxybisabolol oxide B] is 90%; for `CC(C)=CCC[C@](C)(O)[C@H]1CC[C@](C)(O)[C@H](O)C1` [Compound 8, (1S,3R,4S,7S)-3,4-dihydroxy-α-bisabolol] it is 90%.

As to `CC(C)=CCC[C@](C)(O)[C@@H]1CC=C(CO)CC1` [Compound 11, 15-hydroxy-α-bisabolol], in data set [3], the “light transmittance” value is reported as 90%. As to `C=C1CC[C@H]2O[C@]2(C)CC[C@@H]2[C@@H]1CC2(C)C` [caryophyllene oxide], the IC50 in data set [1] was 208 µM. `CC1=CC[C@@H]([C@]2(C)CC[C@H](O)C(C)(C)O2)CC1` [α-Bisabolol oxide A]: the “IC50 for DPPH radical scavenging ability” value in data set [8] was 1500 µg/mL.
